Data set [1] deals with Mus musculus. Description: Toxicity in Swiss mouse assessed as spontaneous locomotor activity at 5 to 20 mg/kg, ip measured during 2 to 6 mins. Also noted: route intraperitoneal. To be noted: in vivo. It counts as organism-based.
The target of data set [2] is 5-hydroxytryptamine receptor 7 (Homo sapiens, UniProt P34969). Kind of data set: Displacement of [3H]LSD from human recombinant 5-HT7 receptor expressed in CHOK1 cells incubated for 60 mins by microbeta plate reader based method. It counts as cell-based, CHO-K1. (In general: In a radioligand displacement assay an active substance lowers the binding of a labelled ligand.)

For data set [3], the target named is T1, D(2) dopamine receptor (Homo sapiens, UniProt P14416). Description: Displacement of [3H]N-methylspiperone from human recombinant dopamine D2 receptor expressed in CHOK1 cells incubated for 60 mins by microbeta plate reader based method. It counts as cell-based, CHO-K1.
The target of data set [4] is T2, 5-hydroxytryptamine receptor 6 (Homo sapiens, UniProt P50406). Description: Displacement of [3H]LSD from human recombinant 5-HT6 receptor expressed in HEK293 cells incubated for 60 mins by microbeta plate reader based method. It is filed as cell-based.
Data set [5] addresses T3, 5-hydroxytryptamine receptor 1A (Homo sapiens) (UniProt P08908).
T3 sequence (whole entry): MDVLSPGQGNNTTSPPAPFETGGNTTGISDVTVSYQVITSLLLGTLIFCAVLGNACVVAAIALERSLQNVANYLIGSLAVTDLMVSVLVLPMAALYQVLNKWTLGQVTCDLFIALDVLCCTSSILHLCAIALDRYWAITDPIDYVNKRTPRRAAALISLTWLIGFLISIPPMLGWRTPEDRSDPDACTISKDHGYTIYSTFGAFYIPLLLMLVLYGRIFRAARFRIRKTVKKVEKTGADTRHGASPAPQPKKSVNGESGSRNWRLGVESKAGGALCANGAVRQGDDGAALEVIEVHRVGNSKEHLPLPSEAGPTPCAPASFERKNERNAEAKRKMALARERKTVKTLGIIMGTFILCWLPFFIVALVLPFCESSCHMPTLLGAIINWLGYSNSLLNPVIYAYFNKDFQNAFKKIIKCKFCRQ
Kind of data set: Agonist activity at human 5-HT1A receptor expressed in HEK293 cells assessed as stimulation of cAMP levels at 1 uM relative to 8-OH-DPAT. It counts as functional, cell-based.

The target in data set [6] is T3, 5-hydroxytryptamine receptor 1A (Homo sapiens). Kind of data set: Agonist activity at human 5-HT1A receptor expressed in HEK293 cells assessed as stimulation of cAMP levels at 0.1 uM relative to 8-OH-DPAT. It is filed as functional, cell-based. For orientation: Changes in cAMP serve as a functional read-out for many G protein-coupled receptors.
Data set [7] concerns the target T1, D(2) dopamine receptor. Description: Agonist activity at human D2L receptor expressed in HEK293 cells assessed as stimulation of cAMP levels at 1 uM relative to dopamine. It counts as functional, cell-based.
Data set [8] has as its target T1, D(2) dopamine receptor. Kind of data set: Agonist activity at human D2L receptor expressed in HEK293 cells assessed as stimulation of cAMP levels at 0.1 uM relative to dopamine. It counts as functional, cell-based.
Data set [9] concerns the target T3, 5-hydroxytryptamine receptor 1A (Homo sapiens). Kind of data set: Antagonist activity against human 5-HT1A receptor expressed in HEK293 cells assessed as inhibition of […]-induced cAMP levels at 1 uM. It counts as functional, cell-based.
Data set [10] shares this target. Kind of data set: Antagonist activity against human 5-HT1A receptor expressed in HEK293 cells assessed as inhibition of […]-induced cAMP levels at 0.1 uM. It is filed as functional, cell-based.
Data set [11] addresses T1, D(2) dopamine receptor. Kind of data set: Antagonist activity against human dopamine D2L receptor expressed in HEK293 cells assessed as inhibition of […]-induced cAMP levels at 1 uM. It is filed as functional, cell-based.
Data set [12] deals with T1, D(2) dopamine receptor. Description: Antagonist activity against human dopamine D2L receptor expressed in HEK293 cells assessed as inhibition of […]-induced cAMP levels at 0.1 uM. It is filed as functional, cell-based.
For data set [13], the system named is Mus musculus. Kind of data set: Antidepressant-like activity in Swiss mouse assessed as reduction in immobility time at 2.5 to 10 mg/kg, ip administered 60 mins before test. It is filed as functional, organism-based.
Data set [14] concerns Mus musculus. Description: Antidepressant-like activity in Swiss mouse assessed as reduction in immobility time at 10 mg/kg, ip administered 60 mins before test. As to conditions: route intraperitoneal. It is filed as functional. Also noted: scale not given: the % may be the effect or the level left.
For data set [15], the system named is Mus musculus. Description: Toxicity in Swiss mouse assessed as spontaneous locomotor activity at 2.5 to 10 mg/kg, ip measured during 2 to 6 mins. It is filed as organism-based. Also noted: route intraperitoneal. To be noted: in vivo.
For data set [16], the system named is Mus musculus. Description: Anxiolytic-like activity in Swiss mouse assessed as increase in number of punished crossings measured during 60 seconds period at 2.5 mg/kg, ip by four-plate test. It counts as functional. To be noted: route intraperitoneal.
Data set [17] deals with Mus musculus. Kind of data set: Anxiolytic-like activity in Swiss mouse assessed as increase in number of punished crossings measured during 60 seconds period at 0.625 to 10 mg/kg, ip by four-plate test. It counts as functional, organism-based.
The subject of data set [18] is Mus musculus. Description: Toxicity in Swiss mouse assessed as spontaneous locomotor activity at 0.625 to 10 mg/kg, ip. It counts as organism-based. The arrangement: dose 0.625-10 mg/kg, route intraperitoneal. As to conditions: in vivo.
In data set [19] the target is T4, 5-hydroxytryptamine receptor 1A (Rattus norvegicus) (UniProt P19327).
T4 sequence (whole entry): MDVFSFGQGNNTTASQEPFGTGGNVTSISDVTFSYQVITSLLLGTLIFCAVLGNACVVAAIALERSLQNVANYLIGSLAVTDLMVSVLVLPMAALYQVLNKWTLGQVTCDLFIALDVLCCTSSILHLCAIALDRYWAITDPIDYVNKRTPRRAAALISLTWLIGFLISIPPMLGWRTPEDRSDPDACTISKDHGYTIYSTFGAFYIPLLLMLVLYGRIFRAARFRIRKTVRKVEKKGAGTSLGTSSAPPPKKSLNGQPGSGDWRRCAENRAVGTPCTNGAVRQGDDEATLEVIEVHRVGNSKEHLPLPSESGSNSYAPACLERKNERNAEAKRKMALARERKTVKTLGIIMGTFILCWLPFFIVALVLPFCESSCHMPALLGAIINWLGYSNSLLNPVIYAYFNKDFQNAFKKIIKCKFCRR
Kind of data set: Displacement of [3H]8-OH-DPAT from rat hippocampus 5-HT1A receptor assessed as total radioligand binding at 1 uM incubated for 20 mins by microbeta plate reader based method.

Data set [20] has as its target T4, 5-hydroxytryptamine receptor 1A (Rattus norvegicus). Kind of data set: Displacement of [3H]8-OH-DPAT from rat hippocampus 5-HT1A receptor assessed as total radioligand binding at 1.66 x 10^-7 M incubated for 20 mins by microbeta plate reader based method.
Data set [21] deals with T2, 5-hydroxytryptamine receptor 6. Description: Displacement of [3H]LSD from human recombinant 5-HT6 receptor expressed in HEK293 cells assessed as total radioligand binding at 1 uM incubated for 60 mins by microbeta plate reader based method. It is filed as cell-based.
For data set [22] the target is unchanged. Kind of data set: Displacement of [3H]LSD from human recombinant 5-HT6 receptor expressed in HEK293 cells assessed as total radioligand binding at 1.66 x 10^-7 M incubated for 60 mins by microbeta plate reader based method. It is filed as cell-based.
Data set [23] has as its target D(3) dopamine receptor (Homo sapiens) (UniProt P35462). Kind of data set: Displacement of [3H]N-methylspiperone from dopamine D3 receptor (unknown origin) assessed as total radioligand binding at 1 uM incubated for 60 mins by microbeta plate reader based method.
Data set [24] has the same target. Kind of data set: Displacement of [3H]N-methylspiperone from dopamine D3 receptor (unknown origin) assessed as total radioligand binding at 1.66 x 10^-7 M incubated for 60 mins by microbeta plate reader based method.
Data set [25] concerns the target T5, 5-hydroxytryptamine receptor 1A (Rattus norvegicus, UniProt P19327).
T5 sequence (P19327 whole entry): T4 sequence (whole entry)
Kind of data set: Displacement of [3H]8-OH-DPAT from rat hippocampus 5-HT1A receptor incubated for 20 mins by microbeta plate reader based method.

The source made the active and inactive calls. The calls are words filed in the database; no cut-off is given here.

T1 sequence (P14416 whole entry): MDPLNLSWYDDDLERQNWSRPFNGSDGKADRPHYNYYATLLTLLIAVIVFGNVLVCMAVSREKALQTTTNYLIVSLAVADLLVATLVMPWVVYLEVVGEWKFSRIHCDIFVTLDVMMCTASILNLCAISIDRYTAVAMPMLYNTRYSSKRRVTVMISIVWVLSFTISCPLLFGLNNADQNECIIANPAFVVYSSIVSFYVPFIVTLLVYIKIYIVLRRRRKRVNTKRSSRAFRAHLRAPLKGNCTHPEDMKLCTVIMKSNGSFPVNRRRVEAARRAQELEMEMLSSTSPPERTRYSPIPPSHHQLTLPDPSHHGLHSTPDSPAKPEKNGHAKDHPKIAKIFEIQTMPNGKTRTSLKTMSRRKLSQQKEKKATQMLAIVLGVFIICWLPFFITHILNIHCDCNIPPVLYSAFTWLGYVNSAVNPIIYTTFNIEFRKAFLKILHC
T2 sequence (P50406 whole entry): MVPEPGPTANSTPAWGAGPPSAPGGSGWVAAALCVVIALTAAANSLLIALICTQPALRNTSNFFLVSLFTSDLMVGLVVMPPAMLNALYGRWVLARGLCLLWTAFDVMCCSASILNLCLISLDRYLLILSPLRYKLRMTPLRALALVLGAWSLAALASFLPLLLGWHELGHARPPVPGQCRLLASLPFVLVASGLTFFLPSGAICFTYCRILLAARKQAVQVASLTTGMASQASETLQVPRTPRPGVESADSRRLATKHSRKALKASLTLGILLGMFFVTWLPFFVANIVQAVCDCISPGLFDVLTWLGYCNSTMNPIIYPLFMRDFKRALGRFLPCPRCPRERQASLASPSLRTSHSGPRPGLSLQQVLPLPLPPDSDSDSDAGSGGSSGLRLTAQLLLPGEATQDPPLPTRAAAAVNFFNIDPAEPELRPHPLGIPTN
D(3) dopamine receptor (Homo sapiens), sequence (P35462 whole entry): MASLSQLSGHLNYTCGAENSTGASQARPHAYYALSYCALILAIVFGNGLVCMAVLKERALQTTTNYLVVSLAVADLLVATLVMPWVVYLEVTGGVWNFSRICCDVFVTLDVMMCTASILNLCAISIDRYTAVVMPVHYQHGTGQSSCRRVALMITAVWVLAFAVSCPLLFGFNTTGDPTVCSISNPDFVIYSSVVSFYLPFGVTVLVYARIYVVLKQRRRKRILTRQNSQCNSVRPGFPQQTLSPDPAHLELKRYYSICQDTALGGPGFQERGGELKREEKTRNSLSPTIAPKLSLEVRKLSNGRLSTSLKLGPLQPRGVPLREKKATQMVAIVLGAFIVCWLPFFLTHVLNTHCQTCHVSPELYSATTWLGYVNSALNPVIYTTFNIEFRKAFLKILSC
5-hydroxytryptamine receptor 7, sequence (P34969 whole entry): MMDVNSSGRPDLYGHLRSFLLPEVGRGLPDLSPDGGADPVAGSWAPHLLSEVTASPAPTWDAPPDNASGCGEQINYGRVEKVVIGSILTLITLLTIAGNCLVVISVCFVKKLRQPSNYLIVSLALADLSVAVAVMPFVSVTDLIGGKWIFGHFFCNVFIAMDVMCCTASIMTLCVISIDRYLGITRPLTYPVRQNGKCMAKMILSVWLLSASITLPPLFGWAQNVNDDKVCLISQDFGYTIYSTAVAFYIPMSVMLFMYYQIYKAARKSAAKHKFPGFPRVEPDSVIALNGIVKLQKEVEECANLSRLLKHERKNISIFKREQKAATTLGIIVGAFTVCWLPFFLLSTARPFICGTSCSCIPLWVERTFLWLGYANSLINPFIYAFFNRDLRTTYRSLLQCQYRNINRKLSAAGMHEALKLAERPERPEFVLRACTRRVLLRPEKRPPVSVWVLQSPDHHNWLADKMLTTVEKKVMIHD

Consider `CN(C)CCCN1c2ccccc2CCc2ccccc21.Cl` [IMIPRAMINE HYDROCHLORIDE], for which the Activity result with Mus musculus [1] is given as “Non-toxic”.

As for `Cc1cccc(N2CCN(CCCCn3c(C)cn4c5c(=O)n(C)c(=O)n(C)c5nc34)CC2)c1C`, the Ki in [2] is 0.381 µM; at D(2) dopamine receptor [3], 0.027 µM; in [4] it was 0.51 µM; in data set [25], under 0.001 µM. In addition, the Activity in [5] was 61.5%; in [6] it was 55.7%; at D(2) dopamine receptor [7] it was 37.6%; at D(2) dopamine receptor [8] it was 35.3%; in the data set with Mus musculus [14], 20%; in the data set with Mus musculus [15], “Non-toxic”. The Activity with Mus musculus [16] was 67%; with Mus musculus [18], “Non-toxic”; in data set [19] it was 42%; in [20], 75%; in [21] it was 68%; in data set [22] it was 81%. The Activity in data set [23] is 34%; in [24], 43%. Also, the inhibition in data set [9] amounted to 105%; in [10], 102%; at D(2) dopamine receptor [11], 73.8%; on D(2) dopamine receptor [12], 38.4%. Also, the result with Mus musculus [13] and in the data set with Mus musculus [17] was Active.

Usually Ki stands for a measure of affinity in units of concentration, obtained from inhibition or displacement. In general, inhibition refers to the relative decrease from the control value, in per cent.
